Assays:
[1] = system: Staphylococcus aureus (MRSA); assay: MIC by Agar Doubling Dilution Method, clinical isolates; assay type: cell-based; settings: Staphylococcus aureus, MRSA
Description: (§1) (3) Culture Solution • MH Broth Culture Solution: 25 g was added into […] distilled water, heat to dissolve, subpackaged, autoclaved at 116° C. for 20 minutes, and MH Solid Culture Medium, 36 g was added into 1000 ml distilled water, autoclaved at 116° C. for 20 minutes, used for drug sensitive test of Gram-positive and negative aerobic bacteria. • Blood culture solution for Enterococcus faecalis, which was prepared by adding defibration rabbit blood into the MH culture solution by 5-10% and cultured at 37° C. in 5% CO2 for 24 hours. 2. Experimental Methods (1) The Measurement of Minimum Inhibitory Concentration (MIC) • The Minimum Inhibitory Concentration (MIC) of PMC-SA1 was measured by Agar Doubling Dilution Method. The bacterium was inoculated on the surface of agar plate containing different concentration of drugs by multipoint inoculate instrument (Deneley A400). The bacterial content per point was 10^5 CFU/ml. After incubated at 37° C. for 18-24 hours, the result can be observed. The least concentration of drugs in plate culture solution without bacterium growing was Minimum Inhibitory Concentration (MIC) of the drug to the said bacteria. 3. Results

E. coli = assay: as above; assay type: cell-based; settings: Escherichia coli, E. coli clinical strains
Description: as §1

[2] = system: Staphylococcus epidermidis (MRSE); assay: as above; assay type: cell-based; settings: Staphylococcus epidermidis, MRSE
Description: as §1

Baumanii = assay: as above; assay type: cell-based
Description: as §1

[3] = system: Staphylococcus aureus (MSSA); assay: as above; assay type: cell-based; settings: Staphylococcus aureus, MSSA
Description: as §1

[4] = system: Staphylococcus epidermidis (MSSE strain); assay: as above; assay type: cell-based
Description: as §1

[5] = system: ATCC 25923 penicillin-sensitive Staphylococcus aureus; assay: Bacteria growth curve (A595 nm cloudiness), penicillin-sensitive Staphylococcus aureus; assay type: cell-based; settings: drug 100 ng/ml, 37° C., A595 nm per hour
Description: The bacterium was United States Reference Culture ATCC 25923 penicillin-sensitive Staphylococcus aureus. 2 microliter of bacteria solution (10^5 CFU/ml) was added into 10 ml culture solution containing 1% tryptone, 1% NaCl, 0.5% yeast extract, 0.5% glucose and 0.1% K2HPO4, totally prepared six groups. The first group as control was added 0.3 M NaCl+50 mM boric acid buffer fluid (i.e. blank preservative fluid for novel antibiotic, wild-type colicin Ia and protein produced by BL-21 engineering bacteria without plasmid, by the same volumes of antibiosis polypeptide liquid in the experimental group, the second group was added penicillin G sodium by 100 ng/ml, the third group was added wild-type colicin Ia by 100 ng/ml, the fourth group was added protein produced by BL-21 engineering bacteria without plasmid by 100 ng/ml, the fifth group was added recombinant protein that C-terminus of colicin Ia is fused other eight peptides by 100 ng/ml, and the sixth group was added the novel antibiotic PMC-SA1 by 100 ng/ml.
The solutions of the six groups were respectively put into 100 ml conical flask, 200 rpm, grew at 37° C. 100 μl was sampled per hour, and added onto 96 hole ELISA Plate and measured bacterium growth cloudiness by spectrophotometer (A595 nm) color comparison. The bacteria-growth curve was drawn up to compare the bacteriostasis efficacy of novel antibiosis.

E. coli 02-1-65 [6] = assay: Protection test in vivo (intravenous injection) of infected mice; design: species or system Kungming mice; settings: Escherichia coli, 02165
Outline: (§2)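 Mice got a lethal intraperitoneal bacterial challenge, then one intravenous dose of drug in sterile water at 10, 5 or 2.5 mg/kg. Survival was checked every 24 h for 7–14 days, with death counted as the positive result.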

[7] = system: Staphylococcus aureus MRSA BAA-42; assay: as above; design: species or system Kungming mice; settings: Staphylococcus aureus
Outline: as §2

Enterococcus ATCC 700802 [8] = assay: as above; design: species or system Kungming mice; settings: Enterococcus, ATCC700802
Outline: as §2

[9] = system: Staphylococcus aureus ATCC 29213; assay: as above; design: species or system Kungming mice; settings: Staphylococcus aureus, ATCC29213
Outline: as §2

Enterococcus = assay: MIC by Agar Doubling Dilution Method, clinical isolates; assay type: cell-based, Enterococcus faecalis; settings: Enterococcus
Description: as §1

E. coli 02-1-65 [10] = assay: MIC against the infecting strain (Table 2); assay type: cell-based; settings: Escherichia coli, 02165
Outline: (§3)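 For Enterococcus, medium was MH supplemented with 5-10% defibrinated rabbit blood and incubation used 5% CO2 at 37° C. All strains are spotted at 10^5 CFU/ml onto agar carrying twofold drug dilutions and read after 18-24 h for absence of growth.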

[11] = system: Staphylococcus aureus MRSA BAA-42; assay: MIC against the infecting strain (Table 2); assay type: cell-based; settings: Staphylococcus aureus
Outline: as §3

[12] = system: Staphylococcus aureus ATCC 29213; assay: MIC against the infecting strain (Table 2); assay type: cell-based; settings: ATCC29213
Outline: as §3

Enterococcus ATCC 700802 [13] = assay: MIC against the infecting strain (Table 2); assay type: cell-based, Enterococcus faecalis; settings: ATCC700802
Description: as §1

In the case of `CC1(C)S[C@@H]2[C@H](NC(=O)Cc3ccccc3)C(=O)N2[C@H]1C(=O)O` [Penicillin, Benzylpenicillin Sodium], the MIC50 [1] is reported as 128 µg/mL, the MIC90 [1] is reported as over 128 µg/mL and the MIC ([1]; read-out: Scope of MIC) is reported as 1 to 128 µg/mL. It also gave an MIC50 (E. coli; read-out: MIC50) of over 128 µg/mL, an MIC90 (E. coli; read-out: MIC90) of over 128 µg/mL and an MIC (E. coli; read-out: Scope of MIC) of over 128 µg/mL. The MIC50 [2] was over 128 µg/mL, the MIC90 [2] was over 128 µg/mL and the MIC50 (Baumanii) was over 128 µg/mL. The MIC90 (Baumanii) was over 128 µg/mL, the MIC (Baumanii; read-out: Scope of MIC) was over 128 µg/mL and the MIC50 [3] was 8 µg/mL. The MIC90 [3] was 64 µg/mL, the “Scope of MIC” value ([4]; MSSE clinical strains) was 0.125 to 128 µg/mL and the MIC50 ([4]; Staphylococcus epidermidis) was 4 µg/mL. The MIC90 ([4]; Staphylococcus epidermidis) was 32 µg/mL, the “growth of penicillin-sensitive Staphylococcus aureus (bacteria-growth curve)” value [5] was “restrained” and the ED50 (E. coli 02-1-65 [6]) was over 34.5 mg/kg. It also gave an ED50 [7] of 14.7 mg/kg, an ED50 (Enterococcus ATCC 700802 [8]) of 4.16 mg/kg and an ED50 [9] of 10.8 mg/kg. It also gave an MIC50 (Enterococcus) of 32 µg/mL, an MIC90 (Enterococcus) of 64 µg/mL and an MIC (E. coli 02-1-65 [10]) of over 128 µg/mL. For the same molecule, the MIC [11] was 8 µg/mL, the MIC [12] was 16 µg/mL and the MIC (Enterococcus ATCC 700802 [13]) was 4 µg/mL.

Source: US8563503B2, “Antibiotic, its nucleotide sequence, methods of construction and uses thereof” (Protein Design Lab. Ltd., priority 2011, dated 2013)
